The subject of experiment [1] is Staphylococcus aureus. The experiment in a line: MIC on growth of Staphylococcus aureus in nutrient solution (ISB), microtitre plates, turbidity. The format is cell-based. To be noted: for MIC: Staphylococcus aureus, read-out: average MIC (+standard deviation). As for the experimental part: (§1) The sensitivity tests and the experiments carried out with combinations of active agents—using the so-called Checkerboard design—in broth (nutrient medium) and milk, were carried out using microtitre plates. Three capsule-positive and three capsule-negative strains of Staphylococcus aureus were used. The so-called MIC value was determined by fluorometric methods (in milk).
(§2) The concentration of the standard solution of the tea tree oil used was 4% vol/vol.
(§3) The highest concentration used in the tests was 1/10th of the original standard solution, i.e. 0.4 vol-%.
1 Effect of tea tree oil (Ttoil) on the growth of Staphylococcus aureus in nutrient solution (ISB).
The results are given as the average minimum inhibitory concentration from four repeats
(§4) 3 Susceptibility of Staphylococcus aureus to selected antibacterial agents in nutrient medium (ISB) and milk. […] Each strain was tested […].

Experiment [2] has as its system Staphylococcus aureus. The experiment can be described thus: MIC on growth of Staphylococcus aureus in milk, microtitre plates, fluorometric. The format is cell-based. To be noted: for MIC: Staphylococcus aureus, read-out: average MIC (+standard deviation). On the procedure:
as §1, §2, §3
2 Effect of tea tree oil on the growth of Staphylococcus aureus in normal milk. Each strain was tested four times.
as §4

Where [3] appears, read: three capsule negative Staph. aureus strains.
The mark [4] stands for this setting: three capsule positive Staph. aureus strains.

A word on the MIC: it is the smallest concentration in the dilution series that meets the test's criterion for growth inhibition.

On to `CC1(C)S[C@@H]2[C@H](NC(=O)[C@H](N)c3ccccc3)C(=O)N2[C@H]1C(=O)O` [Ampicillin, ampicillin], for which the MIC was determined as 0.198 ± 0.018 µg/mL with Staphylococcus aureus [1] (setting [3]), 0.188 ± 0.019 µg/mL with Staphylococcus aureus [1] (setting [4]), 0.104 ± 0.009 µg/mL in the experiment on Staphylococcus aureus [2] (setting [3]) and 0.12 ± 0.005 µg/mL in the experiment on Staphylococcus aureus [2] (setting [4]).
As to spiramycin, the “MIC range (in brackets)” value was “(10-20) μg/ml” with Staphylococcus aureus [1] (setting [3]), “(10-20) μg/ml” in the experiment on Staphylococcus aureus [1] (setting [4]), “(6.25-50) μg/ml” with Staphylococcus aureus [2] (setting [3]) and “(12.5-50) μg/ml” in the experiment on Staphylococcus aureus [2] (setting [4]). The “average MIC (+standard deviation)” value was determined as 15 ± 1.5 µg/mL with Staphylococcus aureus [1] (setting [3]), 15.83 ± 1.49 µg/mL with Staphylococcus aureus [1] (setting [4]), 25.52 ± 4.82 µg/mL in the experiment on Staphylococcus aureus [2] (setting [3]) and 25 ± 3.77 µg/mL with Staphylococcus aureus [2] (setting [4]).
Consider `CC(=O)OCC1=C(C(=O)O)N2C(=O)[C@@H](NC(=O)Cc3cccs3)[C@H]2SC1` [Cephalothin, cephalothin], for which the MIC in the experiment on Staphylococcus aureus [1] (setting [3]) stood at 0.188 ± 0.019 µg/mL; in the experiment on Staphylococcus aureus [1] (setting [4]) it was 0.188 ± 0.019 µg/mL; in the experiment on Staphylococcus aureus [2] (setting [3]), 0.167 ± 0.018 µg/mL; in the experiment with Staphylococcus aureus [2] (setting [4]), 0.25 µg/mL. Besides, the “MIC range (in brackets)” value in the experiment with Staphylococcus aureus [1] (setting [3]), with Staphylococcus aureus [1] (setting [4]) and in the experiment with Staphylococcus aureus [2] (setting [3]) was “(0.125-0.25) μg/ml” each time.
As for `CC1(C)S[C@@H]2[C@H](NC(=O)Cc3ccccc3)C(=O)N2[C@H]1C(=O)O` [Penicillin G, penicillin G], the “MIC range (in brackets)” value with Staphylococcus aureus [1] (setting [3]) is reported as “(0.025-0.05) μg/ml”; in the experiment on Staphylococcus aureus [1] (setting [4]) it was “(0.025-0.05) μg/ml”; in the experiment on Staphylococcus aureus [2] (setting [3]), “(0.013-0.05) μg/ml”; in the experiment on Staphylococcus aureus [2] (setting [4]), “(0.013-0.025) μg/ml”. Besides, the “average MIC (+standard deviation)” value was 0.033 ± 0.004 µg/mL in the experiment on Staphylococcus aureus [1] (setting [3]), 0.035 ± 0.004 µg/mL in the experiment with Staphylococcus aureus [1] (setting [4]), 0.031 ± 0.005 µg/mL in the experiment with Staphylococcus aureus [2] (setting [3]) and 0.022 ± 0.002 µg/mL in the experiment on Staphylococcus aureus [2] (setting [4]).

The values are drawn from patent US20030113385A1, “Use of combinations of active agents consisting of antimicrobially active substances and plant extracts containing terpene in veterinary medicine” (Boehringer Ingelheim Vetmedica GmbH, priority 1998, published 2003).
